Results: patent US8735622B2, “Histone demethylase inhibitors and methods for using the same” (The Regents of the University of Colorado, a body corporate, priority 2011, dated 2014)
Values joined by “and” are separate entries in the source; they are usually repeats but may differ in a detail not shown here. Equal values may be shown once.

Tests used:
[1] = target: T1, human GASC1 (GST-GASC1(1-420)) (Homo sapiens, UniProt Q9H3R0); assay: GASC1 enzyme activity assay (DELFIA); assay type: biochemical; details: DELFIA, H3K9me3 peptide substrate
T1 construct: corresponding to amino acid 1-420 was cloned and purified; made in house; host or cells: Escherichia coli BL-21
T1 sequence (Q9H3R0 1-420): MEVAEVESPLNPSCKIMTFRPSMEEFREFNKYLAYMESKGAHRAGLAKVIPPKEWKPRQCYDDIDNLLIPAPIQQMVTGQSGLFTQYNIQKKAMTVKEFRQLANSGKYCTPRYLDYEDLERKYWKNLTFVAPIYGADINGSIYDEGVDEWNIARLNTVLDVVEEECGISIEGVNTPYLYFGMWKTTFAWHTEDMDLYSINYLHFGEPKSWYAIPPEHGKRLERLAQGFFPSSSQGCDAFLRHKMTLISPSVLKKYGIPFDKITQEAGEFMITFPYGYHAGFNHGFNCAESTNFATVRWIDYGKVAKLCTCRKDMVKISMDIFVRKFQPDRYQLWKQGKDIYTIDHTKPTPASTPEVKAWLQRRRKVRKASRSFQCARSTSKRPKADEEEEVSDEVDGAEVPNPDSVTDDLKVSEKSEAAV
Procedure: (§1) In order to evaluate the inhibitory activity of 1 in vitro, a GST-fusion protein of the catalytic N-terminus of human GASC1 (gene amplified in squamous cell carcinoma 1) corresponding to amino acid 1-420 was cloned and purified. […] To evaluate the enzyme specificity of 1, the activity of 1 was examined against several other related enzymes in vitro.
(§2) The enzyme activity assays for GASC1 and JMJD2A were established on the DELFIA platform. DELFIA assays were performed in white, opaque 384-well plates coated with Streptavidin (Perkin Elmer). GST-GASC1(1-420) was diluted to 200 ng/well in 20 mM Tris HCl pH 8.5/2 mM glutathione and added in a volume of 20 μL. Blank wells received Tris/glutathione buffer only. Test compounds were diluted in DMSO and […] was pinned into the wells. Blank and control wells received only compound buffer. The reactions were initiated by the addition of 500 nM biotin-H3(1-20)K9me3 substrate, 10 μM FeSO4, 100 μM alpha-ketoglutarate in a volume of 20 μL, and incubated at room temperature for 60 minutes. The plates were washed 3 times with 100 μL of Wash Buffer (50 mM Tris pH 7.4, 150 mM NaCl, 0.05% Tween 20, 0.2% BSA). […] Time resolved fluorescence was measured after 45 minutes on an Envision Microplate Imager (Perkin Elmer Life Sciences) with 400 μs delay, excitation at 360 nm, and emission at 620 nm.

JMJD2A = target: T2, JMJD2A (Homo sapiens, UniProt O75164); assay: JMJD2A enzyme activity assay (DELFIA); assay type: biochemical; details: DELFIA
T2 construct: Recombinant protein preparation of GASC1(1-420), JMJD2A (1-420) and LSD1 (full-length); made in house; host or cells: Escherichia coli BL-21
T2 sequence (O75164 1-420): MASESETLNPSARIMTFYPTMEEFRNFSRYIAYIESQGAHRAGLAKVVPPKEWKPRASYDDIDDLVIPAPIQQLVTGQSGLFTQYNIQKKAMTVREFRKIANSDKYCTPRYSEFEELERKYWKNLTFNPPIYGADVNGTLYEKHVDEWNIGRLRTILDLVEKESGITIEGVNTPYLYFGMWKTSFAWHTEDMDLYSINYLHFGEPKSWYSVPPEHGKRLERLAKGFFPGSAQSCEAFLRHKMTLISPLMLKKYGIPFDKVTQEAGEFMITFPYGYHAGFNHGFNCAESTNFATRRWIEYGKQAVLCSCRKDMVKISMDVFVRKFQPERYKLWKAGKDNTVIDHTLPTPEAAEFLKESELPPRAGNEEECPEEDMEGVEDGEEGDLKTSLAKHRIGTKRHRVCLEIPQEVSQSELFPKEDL
Procedure: as §1, §2

LSD1 = target: T3, LSD1 (Homo sapiens, UniProt O60341); assay: LSD1 formaldehyde dehydrogenase coupled assay; assay type: biochemical; details: in vitro
T3 construct: LSD1 (full-length) was expressed as glutathione S-transferase (GST) fusions; made in house; host or cells: Escherichia coli BL-21
Procedure: LSD1 activity was measured in a formaldehyde dehydrogenase coupled assay. 15 μL enzyme mix containing 2.4 μg GST-LSD1 in 20 mM TRIS pH 8.5, 1 mM NAD, 1.5 mU formaldehyde dehydrogenase, 0.5 mM glutathione was added, followed by pin transfer of 100 nL compound. Then reactions were started by addition of 15 μL 75 μM H3(1-20)K4me2 peptide, and NADH fluorescence was measured on a Envision Microplate Imager (Perkin Elmer Life Sciences) with excitation at 345 nm and emission at 460 nm, integration for 400 ms at 10 min and 80 min after peptide addition.

HDACs = assay: Histone deacetylases (HDACs) enzyme inhibition assay (Fluor de Lys); assay type: biochemical; details: in vitro
Procedure: The enzyme activity assay for HDAC was carried out using Fluor de Lys Fluorescent Assay System (BML-AK500, Enzo Life Sciences Inc, NY USA). The assay was performed as the manufactory guide in white 384-well plates. Time resolved fluorescence was measured on a Beckman Coulter DTX 880 plate reader with 250 ms delay, excitation at 360 nm, and emission at 530 nm.

KYSE150 cells = assay: Cell viability / growth inhibition assay (CellTiter-Glo); assay type: cell-based, human; details: 48 hours; compound 1 at up to 100 μM
From the text: To examine the cellular activity of the compounds of the invention, oesophageal carcinoma cell line KYSE150 was used in a growth inhibition assay because KYSE150 cells have been reported to contain several copies of the GASC1 gene, and it has been reported that inhibition of GASC1 expression using short hairpin RNA causes a significant reduction of proliferation in KYSE150 cells. […] Without being bound by any theory, it is believed that this low activity in cells was possibly due to the poor cellular uptake of the zwitterion form in which it typically exists under physiological conditions. Therefore, its methyl ester prodrug 2 (FIG. 1a), called methylstat was tested.
To screen and validate the cellular toxicity of compounds, a cell viability assay was carried out using CellTiter-Glo luminescent cell viability assay kit (Promega, Madison USA). KYSE150 cells were seeded on blank-walled 384-well plates with KYSE medium at densities of 1,000 cells/well. The medium volume for each well was 40 μL. Cells were incubated at 37° C. in 5% CO2/95% air for 24 hours. The medium was removed from each well and replaced with 38 μL, of warmed fresh medium and 2 μL, compound solution in 2% DMSO/98% H2O. The compounds were added into medium at different concentrations with the final concentration of DMSO as 0.1%. After incubation at 37° C. with 5% CO2/95% air for another 48 hours, the plates were equilibrated to room temperature for 30 minutes. 40 μL, of CellTiter-Glo reagent (Promega, Madison USA) was added to each well and mixed for 2 minutes on an orbital shaker. The plate was incubated at room temperature for another 10 minutes to stabilize luminescent signal. The luminescence of each sample was measured in a plate-reading illuminometer (Beckman Coulter DTX 880) with parameters of 1-minute lag time and 0.1 second/well read time. The experiments were performed in triplicate and repeated on two separately initiated cultures.

GST-fused GASC1(1-420) = target: T4, GST-fused GASC1(1-420) (Homo sapiens, UniProt Q9H3R0); assay: GASC1 enzyme inhibition assay with MS detection; assay type: biochemical; details: 1 μM and 5 μM, 2 hours
T4 construct: corresponding to amino acid 1-420 was cloned and purified; made in house; host or cells: Escherichia coli BL-21
T4 sequence (Q9H3R0 1-420): T1 sequence (Q9H3R0 1-420)
Procedure: Synthetic histone peptides H3K9me3 were incubated with purified GST-tagged GASC1(1-420) in demethylation buffer (50 mM Tris pH 8.0, 2 mM ZnCl2, 1 mM alpha-ketoglutarate, 50 μM FeSO4, 1 mM ascorbic acid) at 37° C. In a typical reaction, 2 μg of modified histone peptides were incubated with 20 μg GST-GASC1(1-420) in a total volume of 40 μL, for 2 hours. Reaction mixtures were concentrated and re-dissolved in 50% methanol in water with 0.1% formic acid followed by ESI-TOF analysis using ABI Q-Star Pulsar.

IC50 [1]: ~4.3 µM and 4.3 µM
IC50 (JMJD2A): ~3.4 µM and 3.4 µM
inhibition of FAD-dependent HDM LSD1 (LSD1): did not significantly inhibit
inhibition of histone deacetylases (HDACs) (HDACs): did not significantly inhibit
Compound: O=C(O)/C=C/C(=O)N(O)CCCCNCc1ccc(COC(=O)Nc2cccc3ccccc23)cc1 [Compound 1]
KYSE150 cell growth inhibition (KYSE150 cells): did not show significant growth inhibition
inhibition of GASC1-mediated demethylation of H3K9me3 peptide (mass spectrum) (GST-fused GASC1(1-420)): inhibited GASC1-mediated demethylation of H3K9me3 peptides
